According to USRE50189E1, “Long term treatment of HIV-infection with TMC278” (Janssen Sciences Ireland Unlimited Company, priority 2006, dated 2024):

What was measured:
[1] = plasma kinetics of TMC278 in the beagle dog after single intramuscular administration of aqueous 30% DMA/50% PEG400 solution; format: in vivo; details: single IM 2.5 mg/kg
Protocol: The study was performed in order to study the plasma kinetics and the absolute bioavailability of TMC278 in the beagle dog after single intramuscular administration (IM) of an aqueous 30% dimethylacetamide (DMA)/50% polyethylene glycol 400 (PEG400) solution of TMC278 at 2.5 mg/kg. The dogs were dosed IM.
Two male beagle dogs (dog No. 16924 and 16854), approximately 3 years old and weighing between 11 and 12 kg at the start of the experimental phase, were used in the present experiment. The dogs were dosed intramuscularly at 0.1 ml/kg body weight by injecting the formulation in the left (dog No. 16924) or right (dog No. 16854) m. biceps femoris. […]
Blood samples (4 ml on EDTA) were taken from a jugular vein from the dogs at 0 (=predose), 0.5, 1, 2, 4, 8, 24, 32, 48, 72, 96, 144, 192, 240 and 312 h after dose administration. […] These samples were analogously processed and analysed.
On day 232 post-dose, a biopsy was performed (dog No. 16924 only) on the iliac lymph node (at the side of injection), on a muscle from the non-injected hind leg and on a muscle at the side of injection after ultrasonographic examination. […] This sample was processed and analysed similarly to the other blood samples.
The concentration of TMC278 in dog plasma was determined by a qualified research LC-MS/MS method after solid phase extraction (SPE). […]

[2] = system: wild type HIV and mutated variants; details: cited from earlier work

## Cc1cc(C=CC#N)cc(C)c1Nc1ccnc(Nc2ccc(C#N)cc2)n1 [TMC278, 4-[[4-[[4-(2-cyanoethenyl)-2,6-dimethylphenyl]amino]-2-pyrimidinyl]amino]benzonitrile]
[1]; mean (n=2)
  t1/2,24-72h: 63.1 h
[1]; 72 h up to 312 h post-dose
  course of plasma levels after 72 h post-dose: remained fairly constant or slightly increased
[2]
  activity against wild type HIV and many of its mutated variants: pronounced activity
